# Test results: patent US20020035061A1, “COMPOSITIONS AND METHODS FOR TREATING INFECTIONS USING CATIONIC PEPTIDES ALONE OR IN COMBINATION WITH ANTIBIOTICS” (priority 1996, published 2002)
# Where two headings read alike, the source gives them in different places.
# Key:
# Type in all cases: cell-based
# S. maltophilia = tested on: S. maltophilia
# S. aureus = tested on: S. aureus
# K. pneumoniae = tested on: K. pneumoniae
# P. aeruginosa = tested on: P. aeruginosa
# S. marcescens = tested on: S. marcescens
# E. cloacae = tested on: E. cloacae
# S. epidermidis = tested on: S. epidermidis
# A. calcoaceticus = tested on: A. calcoaceticus
# E. faecalis = tested on: E. faecalis
# E. coli = tested on: E. coli
# [1] = tested on: inherently resistant microorganisms; experiment: microbe, parasite or virus in culture
# bacterial isolates = experiment: microbe, parasite or virus in culture
# [2] = tested on: vancomycin / teicoplanin resistant enterococci; experiment: microbe, parasite or virus in culture; details: for Peptide MIC Alone: Amikacin section; for FIC: peptide + Amikacin
# [3] = tested on: microorganisms with acquired resistance; experiment: microbe, parasite or virus in culture; details: for Peptide MIC Alone: Gentamicin section; for FIC: peptide + Gentamicin
sequence,measurement,setting,value
ILKKNPNNPRRK [MBI 11G6ACN],MIC,S. maltophilia; S. maltophilia strain SMA002,>128 µg/mL
same,MIC,S. aureus; S. aureus strain SA014,64 µg/mL
same,MIC,K. pneumoniae; K. pneumoniae strain KP001,>128 µg/mL
same,MIC,P. aeruginosa; P. aeruginosa strain PA004,>128 µg/mL
same,MIC,S. marcescens; S. marcescens strain SMS003,>128 µg/mL
same,MIC,E. cloacae; E. cloacae strain ECL007,>128 µg/mL
same,MIC,S. epidermidis; S. epidermidis strain SE010,32 µg/mL
same,MIC,A. calcoaceticus; A. calcoaceticus strain AC002,4 µg/mL
same,MIC,E. faecalis; E. faecalis strain EFS008,>128 µg/mL
same,MIC,E. coli; E. coli strain ECO005,64 µg/mL
ILKKWPNNPNRRK [MBI 11CNW1],MIC,S. maltophilia; S. maltophilia SMA002,32 µg/mL
same,MIC,S. aureus; S. aureus SA010,4 µg/mL
same,MIC,K. pneumoniae; K. pneumoniae KP001,32 µg/mL
same,MIC,P. aeruginosa; P. aeruginosa PA004,64 µg/mL
same,MIC,S. marcescens; S. marcescens SMS003,>128 µg/mL
same,MIC,E. cloacae; E. cloacae ECL007,64 µg/mL
same,MIC,A. calcoaceticus; A. calcoaceticus AC002,8 µg/mL
same,MIC,E. faecalis; E. faecalis EFS001,8 µg/mL
same,MIC,E. coli; E. coli ECO005,32 µg/mL
ILKKWPWWPWRRK [MBI 11ACN],MIC,S. maltophilia; S. maltophilia SMA002,64 µg/mL
same,MIC,S. aureus; S. aureus SA014,8 µg/mL
same,MIC,K. pneumoniae; K. pneumoniae KP001,16 µg/mL
same,MIC,P. aeruginosa; P. aeruginosa PA004,>128 µg/mL
same,MIC,S. marcescens; S. marcescens SMS003,>128 µg/mL
same,MIC,E. cloacae; E. cloacae ECL007,>128 µg/mL
same,MIC,S. epidermidis; S. epidermidis SE010,4 µg/mL
same,MIC,A. calcoaceticus; A. calcoaceticus AC002,2 µg/mL
same,MIC,E. faecalis; E. faecalis EFS004,8 µg/mL
same,MIC,E. faecalis; E. faecalis EFS008,64 µg/mL
same,MIC,E. coli; E. coli ECO005,16 µg/mL
ILPWKWPWWPWRR [MBI 10],MIC,S. maltophilia; S. maltophilia SMA001,128 µg/mL
same,MIC,S. aureus; S. aureus SA007,2 µg/mL
same,MIC,K. pneumoniae; K. pneumoniae KP001,128 µg/mL
same,MIC,P. aeruginosa; P. aeruginosa PA003,>128 µg/mL
same,MIC,S. marcescens; S. marcescens SMS003,>128 µg/mL
same,MIC,A. calcoaceticus; A. calcoaceticus AC001,128 µg/mL
same,MIC,E. faecalis; E. faecalis EFS004,8 µg/mL
same,MIC,E. coli; E. coli ECO002,128 µg/mL
ILRAPWWPWRRK [MBI 11H04CN],MIC,S. maltophilia; S. maltophilia SMA002,>128 µg/mL
same,MIC,S. aureus; S. aureus SA014,4 µg/mL
same,MIC,S. aureus; S. aureus SA093,2 µg/mL
same,MIC,K. pneumoniae; K. pneumoniae KP001,64 µg/mL
same,MIC,P. aeruginosa; P. aeruginosa PA004,>128 µg/mL
same,MIC,S. marcescens; S. marcescens SMS003,>128 µg/mL
same,MIC,E. cloacae; E. cloacae ECL007,>128 µg/mL
same,MIC,S. epidermidis; S. epidermidis SE010,16 µg/mL
same,MIC,A. calcoaceticus; A. calcoaceticus AC002,8 µg/mL
same,MIC,E. faecalis; E. faecalis EFS001,2 µg/mL
same,MIC,E. faecalis; E. faecalis EFS008,8 µg/mL
same,MIC,E. coli; E. coli ECO005,32 µg/mL
ILRNPNNPNRRK [MBI 11B7CNF12],MIC,S. maltophilia; S. maltophilia strain SMA002,64 µg/mL
same,MIC,K. pneumoniae; K. pneumoniae strain KP001,16 µg/mL
same,MIC,P. aeruginosa; P. aeruginosa strain PA004,>128 µg/mL
same,MIC,S. marcescens; S. marcescens strain SMS003,>128 µg/mL
same,MIC,A. calcoaceticus; A. calcoaceticus strain AC002,4 µg/mL
same,MIC,E. faecalis; E. faecalis strain EFS001,2 µg/mL
same,MIC,E. coli; E. coli strain ECO005,16 µg/mL
KWKLFIKKLTPAVKKVLLTGLPALIS [MBI 29F1],Peptide MIC + Amikacin,[1]; A. baumannii,2 µg/mL
same,Peptide MIC Alone,"[1]; A. baumannii, Amikacin section",8 µg/mL
same,Peptide MIC + Amikacin,[1]; S. maltophilia,2 µg/mL
same,FIC,"[1]; peptide + Amikacin, A. baumannii",0.75
same,Peptide MIC Alone,"bacterial isolates; 1. Amikacin, A. baumannii ABI001",8 µg/mL
same,Peptide MIC Alone,"bacterial isolates; 1. Amikacin, A. baumannii ABI003",4 µg/mL
same,Peptide MIC Alone,"bacterial isolates; 1. Amikacin, E. coli ECO022",4 µg/mL
same,Peptide MIC Alone,"bacterial isolates; 1. Amikacin, E. faecalis EFS008",4 µg/mL
same,Peptide MIC Alone,"bacterial isolates; 1. Amikacin, E. faecium EFM004",32 µg/mL
same,Peptide MIC Alone,"bacterial isolates; 1. Amikacin, P. aeruginosa PA022",4 µg/mL
same,Peptide MIC Alone,"bacterial isolates; 1. Amikacin, S. aureus SA014 MRSA",4 µg/mL
same,Peptide MIC Alone,"bacterial isolates; 1. Amikacin, S. epidermidis SE002",32 µg/mL
same,Peptide MIC Alone,"bacterial isolates; 1. Amikacin, S. epidermidis SE003",32 µg/mL
same,Peptide MIC Alone,"bacterial isolates; 1. Amikacin, S. maltophilia SMA021",8 µg/mL
same,Peptide MIC Alone,"bacterial isolates; 1. Amikacin, S. maltophilia SMA022",16 µg/mL
same,Peptide MIC Alone,"bacterial isolates; 4. Gentamicin, P. aeruginosa PA023",128 µg/mL
same,Peptide MIC Alone,"bacterial isolates; 4. Gentamicin, S. maltophilia SMA016",32 µg/mL
same,Peptide MIC Alone,"bacterial isolates; 4. Gentamicin, S. maltophilia SMA017",4 µg/mL
same,Amikacin MIC + Peptide,bacterial isolates; A. baumannii ABI001,0.25 µg/mL
same,Peptide MIC + Amikacin,bacterial isolates; A. baumannii ABI001,4 µg/mL
same,Amikacin MIC + Peptide,bacterial isolates; A. baumannii ABI003,2 µg/mL
same,Peptide MIC + Amikacin,bacterial isolates; A. baumannii ABI003,2 µg/mL
same,Peptide MIC + Amikacin,bacterial isolates; E. coli ECO022,2 µg/mL
same,Amikacin MIC + Peptide,bacterial isolates; E. faecalis EFS008,16 µg/mL
same,Peptide MIC + Amikacin,bacterial isolates; E. faecalis EFS008,0.125 µg/mL
same,Amikacin MIC + Peptide,bacterial isolates; E. faecium EFM004,32 µg/mL
same,Peptide MIC + Amikacin,bacterial isolates; E. faecium EFM004,8 µg/mL
same,Amikacin MIC + Peptide,bacterial isolates; P. aeruginosa PA022,64 µg/mL
same,Peptide MIC + Amikacin,bacterial isolates; P. aeruginosa PA022,0.125 µg/mL
same,Gentamicin MIC + Peptide,bacterial isolates; P. aeruginosa PA023,0.125 µg/mL
same,Peptide MIC + Gentamicin,bacterial isolates; P. aeruginosa PA023,64 µg/mL
same,Amikacin MIC + Peptide,bacterial isolates; S. aureus SA014 MRSA,16 µg/mL
same,Peptide MIC + Amikacin,bacterial isolates; S. aureus SA014 MRSA,0.125 µg/mL
same,Amikacin MIC + Peptide,bacterial isolates; S. epidermidis SE002,16 µg/mL
same,Peptide MIC + Amikacin,bacterial isolates; S. epidermidis SE002,4 µg/mL
same,Amikacin MIC + Peptide,bacterial isolates; S. epidermidis SE003,16 µg/mL
same,Peptide MIC + Amikacin,bacterial isolates; S. epidermidis SE003,8 µg/mL
same,Gentamicin MIC + Peptide,bacterial isolates; S. maltophilia SMA016,16 µg/mL
same,Peptide MIC + Gentamicin,bacterial isolates; S. maltophilia SMA016,16 µg/mL
same,Gentamicin MIC + Peptide,bacterial isolates; S. maltophilia SMA017,32 µg/mL
same,Peptide MIC + Gentamicin,bacterial isolates; S. maltophilia SMA017,0.125 µg/mL
same,Amikacin MIC + Peptide,bacterial isolates; S. maltophilia SMA021,8 µg/mL
same,Peptide MIC + Amikacin,bacterial isolates; S. maltophilia SMA021,2 µg/mL
same,Amikacin MIC + Peptide,bacterial isolates; S. maltophilia SMA022,16 µg/mL
same,Peptide MIC + Amikacin,bacterial isolates; S. maltophilia SMA022,4 µg/mL
same,FIC,"bacterial isolates; peptide + Amikacin, A. baumannii ABI001",0.51
same,FIC,"bacterial isolates; peptide + Amikacin, A. baumannii ABI003",0.63
same,FIC,"bacterial isolates; peptide + Amikacin, E. coli ECO022",0.51
same,FIC,"bacterial isolates; peptide + Amikacin, E. faecalis EFS008",0.28
same,FIC,"bacterial isolates; peptide + Amikacin, E. faecium EFM004",0.38
same,FIC,"bacterial isolates; peptide + Amikacin, P. aeruginosa PA022",0.53
same,FIC,"bacterial isolates; peptide + Amikacin, S. aureus SA014 MRSA",0.53
same,FIC,"bacterial isolates; peptide + Amikacin, S. epidermidis SE002",0.38
same,FIC,"bacterial isolates; peptide + Amikacin, S. epidermidis SE003",0.50
same,FIC,"bacterial isolates; peptide + Amikacin, S. maltophilia SMA021",0.31
same,FIC,"bacterial isolates; peptide + Amikacin, S. maltophilia SMA022",0.31
same,FIC,"bacterial isolates; peptide + Gentamicin, P. aeruginosa PA023",0.52
same,FIC,"bacterial isolates; peptide + Gentamicin, S. maltophilia SMA016",0.56
same,FIC,"bacterial isolates; peptide + Gentamicin, S. maltophilia SMA017",0.53
same,Amikacin MIC + Peptide,[2]; E. faecalis EFS008,4 µg/mL
same,Peptide MIC + Amikacin,[2]; E. faecalis EFS008,0.5 µg/mL
same,Peptide MIC Alone,[2]; E. faecalis EFS008,4 µg/mL
same,Amikacin MIC + Peptide,[2]; E. faecium EFM004,8 µg/mL
same,Peptide MIC + Amikacin,[2]; E. faecium EFM004,16 µg/mL
same,Peptide MIC Alone,[2]; E. faecium EFM004,32 µg/mL
same,FIC,[2]; E. faecalis EFS008,0.19
same,FIC,[2]; E. faecium EFM004,0.53
same,Gentamicin MIC + Peptide,[3]; A. calcoaceticus AC001,2 µg/mL
same,Peptide MIC + Gentamicin,[3]; A. calcoaceticus AC001,4 µg/mL
same,Peptide MIC Alone,[3]; A. calcoaceticus AC001,8 µg/mL
same,Gentamicin MIC + Peptide,[3]; P. aeruginosa PA023,0.125 µg/mL
same,Peptide MIC + Gentamicin,[3]; P. aeruginosa PA023,64 µg/mL
same,Peptide MIC Alone,[3]; P. aeruginosa PA023,128 µg/mL
same,FIC,[3]; A. calcoaceticus AC001,0.75
same,FIC,[3]; P. aeruginosa PA023,0.52
